Measurements: patent EP4782445A1, “CDK KINASE INHIBITOR AND USE THEREOF” (Abbisko Therapeutics Co., Ltd., priority 2023, dated 2025)

Columns and labels:
[1] = biological target: T1, CDK2/cyclin E1 (Homo sapiens, UniProt P24941); assay: In vitro biochemical kinase activity assay for CDK2/cyclin E1 (HTRF); conditions: 1 µM ATP
T1 construct: purchased Carna
Description: I. In Vitro Biochemical Kinase Activity Assay for CDK2/Cyclin E1
The inhibitory effects of the compounds of the present invention on CDK2/cyclin E1 kinase activity were determined using a homogeneous time-resolved fluorescence (HTRF) assay. The experimental process was as follows: • 1. The kinase reaction was carried out in a 384-well plate. 15 nM CDK2/cyclin E1 kinase (Carna), 1 µM ATP, and 1 µM biotin-labeled substrate protein ATF2-biotin (Cisbio) were incubated at room temperature for 90 min in a buffer system composed of 10 mM MgCl2, 1 mM MnCl2, 1 mM DTT, and basal kinase buffer (Cisbio). • 2. The detection solution (Cisbio, containing reagents that specifically recognize phosphorylated ATF2 and ATF2-biotin proteins, respectively) was added. The plate was then sealed with a film (to protect from light and volatilization) and incubated at 25°C for 60 min. • 3. The plate was transferred to an Envision plate reader to detect fluorescence resonance energy transfer (FRET) signals. (The 665/615 ratio was calculated by reading the emission at 665 nm and 615 nM, respectively.) • 4. The IC50 values were determined by analyzing the inhibition at varying compound concentrations using Model 205 in the XLfit software.

[2] = biological target: T2, CDK4/cyclin D3 (Homo sapiens, UniProt P11802); assay: In vitro biochemical kinase activity assay for CDK4/cyclin D3 (HTRF); conditions: unmarked data: 80 µM ATP in Step 1
T2 construct: purchased Carna
Method in brief: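 HTRF kinase reaction: 4.9 nM CDK4/cyclin D3, 1 mM (or 80 µM) ATP and 0.3 µM Rb-biotin substrate, 90 min at 30°C in buffer with 50 mM MgCl2 and 1 mM DTT.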

[3] = biological target: T3, CDK6/cyclin D3 (Homo sapiens, UniProt Q00534); assay: In vitro biochemical kinase activity assay for CDK6/cyclin D3 (HTRF); conditions: unmarked data: 100 µM ATP in Step 1
T3 construct: purchased Carna
Method in brief: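 HTRF assay: 0.02 nM CDK6/cyclin D3 incubated with 1 mM (or 100 µM) ATP and 0.3 µM Rb-biotin substrate at 30°C for 60 min in kinase buffer with 5 mM MgCl2 and 1 mM DTT.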

T2 sequence (P11802 whole entry): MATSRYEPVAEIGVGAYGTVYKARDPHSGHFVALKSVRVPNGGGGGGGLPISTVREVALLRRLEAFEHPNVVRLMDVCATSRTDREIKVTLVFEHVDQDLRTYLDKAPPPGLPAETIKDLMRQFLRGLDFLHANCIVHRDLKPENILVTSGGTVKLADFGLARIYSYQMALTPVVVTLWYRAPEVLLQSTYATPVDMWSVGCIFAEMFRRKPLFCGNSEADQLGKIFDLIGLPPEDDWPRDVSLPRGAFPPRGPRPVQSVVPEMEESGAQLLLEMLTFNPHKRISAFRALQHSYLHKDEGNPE
T2 sequence (P30281 whole entry partner): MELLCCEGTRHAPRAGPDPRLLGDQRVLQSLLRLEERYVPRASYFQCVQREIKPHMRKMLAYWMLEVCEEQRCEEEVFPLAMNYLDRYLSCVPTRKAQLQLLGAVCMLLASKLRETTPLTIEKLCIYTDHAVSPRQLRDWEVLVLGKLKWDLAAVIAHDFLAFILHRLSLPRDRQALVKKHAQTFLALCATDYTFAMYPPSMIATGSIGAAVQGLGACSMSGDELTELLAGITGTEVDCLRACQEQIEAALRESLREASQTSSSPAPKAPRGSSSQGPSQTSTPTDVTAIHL
T3 sequence (Q00534 whole entry): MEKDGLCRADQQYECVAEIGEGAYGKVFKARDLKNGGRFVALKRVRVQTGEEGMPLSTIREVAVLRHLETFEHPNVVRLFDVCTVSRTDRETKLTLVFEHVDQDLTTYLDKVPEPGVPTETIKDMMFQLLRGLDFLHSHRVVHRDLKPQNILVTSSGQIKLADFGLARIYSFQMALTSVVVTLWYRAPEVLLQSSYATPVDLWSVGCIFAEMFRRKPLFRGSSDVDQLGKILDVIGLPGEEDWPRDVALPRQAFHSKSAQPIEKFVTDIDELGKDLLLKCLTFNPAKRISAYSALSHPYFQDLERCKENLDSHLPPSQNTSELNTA
T3 sequence (P30281 whole entry partner): as the sequence (P30281 whole entry partner) above

What does the source list for `CC(C)n1c(C#Cc2nc(N[C@@H]3CCN(S(C)(=O)=O)C[C@H]3O)ncc2Cl)cnc1C(C)(C)O` [Example 24, (3R,4R)-4-((5-chloro-4-((2-(2-hydroxypropan-2-yl)-1-isopropyl-1H-imidazol-5-yl)ethynyl)pyrimidin-2-yl)amino)-1-(methanesulfonyl)piperidin-3-ol]?
IC50 [1]: 236 nM; IC50 [2]: 0.56 nM; IC50 [3]: 3.04 nM

How did the IC50 [1] turn out when `CCN1CC2(C1)CN(c1ccc(Nc3ncc(Cl)c(C#Cc4cnn(C)c4C(C)C)n3)nc1)C2` [Example 62, 5-chloro-N-(5-(6-ethyl-2,6-diazaspiro[3.3]heptan-2-yl)pyridin-2-yl)-4-((5-isopropyl-1-methyl-1H-pyrazol-4-yl)ethynyl)pyrimidin-2-amine] was run?
Its IC50 is 129 nM.

What about the IC50 [2] of the same compound?
Its IC50 is 0.36 nM.

What about the IC50 [3] of the same compound?
The IC50 was 4.86 nM.

What does the source list for `CC(=O)c1ncc(C#Cc2nc(N[C@@H]3CCOC[C@H]3O)ncc2Cl)n1C(C)C` [Example 1, 1-(5-((5-chloro-2-(((3S,4R)-3-hydroxytetrahydro-2H-pyran-4-yl)amino)pyrimidin-4-yl)ethynyl)-1-isopropyl-1H-imidazol-2-yl)ethan-1-one]?
IC50 [1]: 3630 nM; IC50 [2]: 6.2 nM; IC50 [3]: 24.2 nM

What does the source list for `CC(=O)c1ncc(C#Cc2nc(N[C@@H]3CCOC[C@H]3O)ncc2Cl)n1C(C)C` [Example 52, 1-(5-((5-chloro-2-(((3 S,4R)-3-hydroxytetrahydro-2H-pyran-4-yl)amino)pyrimidin-4-yl)ethynyl)-1-isopropyl-1H-imidazol-2-yl)ethan-1-one]?
IC50 [1]: 2930 nM; IC50 [2]: 6.22 nM; IC50 [3]: 24.2 nM

Which IC50 [1] does the source give for `CC(C)NCc1ncc(C#Cc2nc(N[C@@H]3CCOC[C@H]3O)ncc2Cl)n1C(C)C` [Example 40, (3 S,4R)-4-((5-chloro-4-((1-isopropyl-2-((isopropylamino)methyl)-1H-imidazol-5-yl)ethynyl)pyrimidin-2-yl)amino)tetrahydro-2H-pyran-3-ol] here?
The IC50 was 1970 nM.

What about the IC50 [2] of the same compound?
Its IC50 is 30.8 nM.

And the IC50 [3]?
Its IC50 is 299 nM.

Which results are given for `CC(C)n1c(C#Cc2nc(N[C@@H]3CCOC[C@H]3O)ncc2Cl)cnc1CN(C)C` [Example 63, (3 S,4R)-4-((5-chloro-4-((2-((dimethylamino)methyl)-1-isopropyl-1H-imidazol-5-yl)ethynyl)pyrimidin-2-yl)amino)tetrahydro-2H-pyran-3-ol]?
IC50 [1]: 693 nM; IC50 [2]: 23.8 nM; IC50 [3]: 130 nM

Which results are given for `CC(C)n1c(C#Cc2nc(N[C@@H]3COC[C@H]3O)ncc2Cl)cnc1C(C)(C)O` [Example 53, (3 S,4R)-4-((5-chloro-4-((2-(2-hydroxypropan-2-yl)-1-isopropyl-1H-imidazol-5-yl)ethynyl)pyrimidin-2-yl)amino)tetrahydrofuran-3-ol]?
IC50 [1]: 493 nM; IC50 [2]: 60.9 nM; IC50 [3]: 192 nM

Which IC50 [1] does the source give for `CC(C)n1c(C#Cc2cc(N[C@@H]3CCOC[C@H]3O)ncc2Cl)cnc1CN1CCC[C@H](O)C1` [Example 109, (S)-1-((5-((5-chloro-2-(((3 S,4R)-3-hydroxytetrahydro-2H-pyran-4-yl)amino)pyridin-4-yl)ethynyl)-1-isopropyl-1H-imidazol-2-yl)methyl)piperidin-3-ol] here?
The IC50 was 3190 nM.

What about the IC50 [2] of the same compound?
Its IC50 is 4.5 nM.

And the IC50 [3]?
Its IC50 is 223 nM.

`CCN1CC2(C1)CN(c1ccc(Nc3ncc(F)c(C#Cc4cnn(C)c4C(C)C)n3)nc1)C2` [Example 61, N-(5-(6-ethyl-2,6-diazaspiro[3.3]heptan-2-yl)pyridin-2-yl)-5-fluoro-4-((5-isopropyl-1-methyl-1H-pyrazol-4-yl)ethynyl)pyrimidin-2-amine] was tested. Which IC50 [1] did it give?
The IC50 was 617 nM.

What about the IC50 [2] of the same compound?
Its IC50 is 0.94 nM.

What about the IC50 [3] of the same compound?
The IC50 was 8.46 nM.

What does the source list for `CC(C)c1c(C#Cc2nc(Nc3ccc(C4CCN(C)CC4)cn3)ncc2Cl)cnn1C` [Example 57, 5-chloro-4-((5-isopropyl-1-methyl-1H-pyrazol-4-yl)ethynyl)-N-(5-(1-methylpiperidin-4-yl)pyridin-2-yl)pyrimidin-2-amine]?
IC50 [1]: 2830 nM; IC50 [2]: 0.68 nM; IC50 [3]: 3.7 nM
